ChEMBL document CHEMBL3217499, “Membrane disrupting antimicrobial peptide dendrimers with multiple amino termini” (Medchemcomm, 2012)
Converted amounts (≈) assume the structure as drawn. Where a SMILES comes first, the peptide text is derived from it. Bridges are numbered along the chain shown (N, C = ends). Roman numbers before positions name the chains, in order. Side-chain parts run from the residue outwards. The star is where a group is joined. X3 = CC(=O)N[C@@H](CC(C)C)C(=O)NCCCC[C@H](NC(=O)[C@H](CC(C)C)NC(C)=O)C(=O)*; LeuLys(Leu) = CC(C)C[C@H](N)C(=O)NCCCC[C@H](NC(=O)[C@@H](N)CC(C)C)C(=O)*; X4 = C[C@H](N)C(=O)NCCCC[C@H](NC(=O)[C@H](C)N)C(=O)*

Columns and labels:
Bacillus subtilis = test: Antibacterial activity against Bacillus subtilis BR151 after 18 to 24 hrs by broth microdilution assay; type: functional
Escherichia coli [1] = test: Antibacterial activity against Escherichia coli DH5[alpha] after 18 to 24 hrs by broth microdilution assay; type: functional
Pseudomonas aeruginosa [2] = test: Antibacterial activity against Pseudomonas aeruginosa PAO1 after 18 to 24 hrs by broth microdilution assay; type: functional
[3] = Hemolytic activity in human RBC after 4 hrs; type: ADME, cell-based; conditions: erythrocyte
Staphylococcus aureus [4] = test: Antibacterial activity against methicillin-resistant Staphylococcus aureus 42080 by broth microdilution assay; type: functional
Staphylococcus aureus [5] = test: Antibacterial activity against Staphylococcus aureus ATCC 29213 by broth microdilution assay; type: functional
Enterococcus faecalis [6] = test: Antibacterial activity against Enterococcus faecalis ATCC 29212 by broth microdilution assay; type: functional
Enterococcus faecalis [7] = test: Antibacterial activity against Enterococcus faecalis Van BE80-8 by broth microdilution assay; type: functional
Escherichia coli [8] = test: Antibacterial activity against Escherichia coli ATCC 25922 by broth microdilution assay; type: functional
Pseudomonas aeruginosa [9] = test: Antibacterial activity against Pseudomonas aeruginosa ATCC 27853 by broth microdilution assay; type: functional
Pseudomonas aeruginosa [10] = test: Antibacterial activity against Pseudomonas aeruginosa PAO1 HS by broth microdilution assay; type: functional
Pseudomonas aeruginosa [11] = test: Antibacterial activity against Pseudomonas aeruginosa 8S/H by broth microdilution assay; type: functional
Pseudomonas aeruginosa [12] = test: Antibacterial activity against Pseudomonas aeruginosa K799/WT by broth microdilution assay; type: functional
Pseudomonas aeruginosa [13] = test: Antibacterial activity against Pseudomonas aeruginosa K799/61 by broth microdilution assay; type: functional

Compound | MIC (Bacillus subtilis) [µg/mL] | MIC (Escherichia coli [1]) [µg/mL] | MIC (Pseudomonas aeruginosa [2]) [µg/mL] | MHC [3] [µg/mL] | MIC (Staphylococcus aureus [4]) [µg/mL] | MIC (Staphylococcus aureus [5]) [µg/mL] | MIC (Enterococcus faecalis [6]) [µg/mL] | MIC (Enterococcus faecalis [7]) [µg/mL] | MIC (Escherichia coli [8]) [µg/mL] | MIC (Pseudomonas aeruginosa [9]) [µg/mL] | MIC (Pseudomonas aeruginosa [10]) [µg/mL] | MIC (Pseudomonas aeruginosa [11]) [µg/mL] | MIC (Pseudomonas aeruginosa [12]) [µg/mL] | MIC (Pseudomonas aeruginosa [13]) [µg/mL]
CC(C)C[C@H](N)C(=O)NCCCC[C@H](NC(=O)[C@@H](N)CC(C)C)C(=O)N[C@@H](Cc1ccccc1)C(=O)NCCCC[C@H](NC(=O)[C@H](Cc1ccccc1)NC(=O)[C@H](CCCCNC(=O)[C@@H](N)CC(C)C)NC(=O)[C@@H](N)CC(C)C)C(=O)N1CCC[C@H]1C(=O)NCCCC[C@H](NC(=O)[C@@H]1CCCN1C(=O)[C@H](CCCCNC(=O)[C@H](Cc1ccccc1)NC(=O)[C@H](CCCCNC(=O)[C@@H](N)CC(C)C)NC(=O)[C@@H](N)CC(C)C)NC(=O)[C@H](Cc1ccccc1)NC(=O)[C@H](CCCCNC(=O)[C@@H](N)CC(C)C)NC(=O)[C@@H](N)CC(C)C)C(=O)N[C@@H](CCCCN)C(N)=O | 2 (≈ 0.732 µM) | 19 (≈ 6.96 µM) | 66 (≈ 24.2 µM) | > 10000 | > 32 | > 32 | > 32 | > 32 | > 32 | > 32 | > 32 | > 32 | > 32 | > 32
CC(C)C[C@@H](N)C(=O)NCCCC[C@H](NC(=O)[C@H](N)CC(C)C)C(=O)N[C@H](CC(C)C)C(=O)NCCCC[C@H](NC(=O)[C@@H](CC(C)C)NC(=O)[C@H](CCCCNC(=O)[C@H](N)CC(C)C)NC(=O)[C@H](N)CC(C)C)C(=O)N[C@H](Cc1ccccc1)C(=O)NCCCC[C@H](NC(=O)[C@@H](Cc1ccccc1)NC(=O)[C@H](CCCCNC(=O)[C@@H](CC(C)C)NC(=O)[C@H](CCCCNC(=O)[C@H](N)CC(C)C)NC(=O)[C@H](N)CC(C)C)NC(=O)[C@@H](CC(C)C)NC(=O)[C@H](CCCCNC(=O)[C@H](N)CC(C)C)NC(=O)[C@H](N)CC(C)C)C(=O)N[C@H](CCCCN)C(N)=O | 2.5 (≈ 0.928 µM) | 15 (≈ 5.57 µM) | 60 (≈ 22.3 µM) | > 10000 |  |  |  |  |  |  |  |  |  | 
CC(C)C[C@@H](N)C(=O)NCCCC[C@H](NC(=O)[C@H](N)CC(C)C)C(=O)N[C@H](Cc1ccccc1)C(=O)NCCCC[C@H](NC(=O)[C@@H](Cc1ccccc1)NC(=O)[C@H](CCCCNC(=O)[C@H](N)CC(C)C)NC(=O)[C@H](N)CC(C)C)C(=O)N1CCC[C@@H]1C(=O)NCCCC[C@H](NC(=O)[C@H]1CCCN1C(=O)[C@H](CCCCNC(=O)[C@@H](Cc1ccccc1)NC(=O)[C@H](CCCCNC(=O)[C@H](N)CC(C)C)NC(=O)[C@H](N)CC(C)C)NC(=O)[C@@H](Cc1ccccc1)NC(=O)[C@H](CCCCNC(=O)[C@H](N)CC(C)C)NC(=O)[C@H](N)CC(C)C)C(=O)N[C@H](CCCCN)C(N)=O | 4.4 (≈ 1.61 µM) | 11 (≈ 4.03 µM) | 60 (≈ 22 µM) | > 10000 |  |  |  |  |  |  |  |  |  | 
CC(=O)N[C@@H](CC(C)C)C(=O)NCCCC[C@H](NC(=O)[C@H](CC(C)C)NC(C)=O)C(=O)N[C@@H](Cc1ccccc1)C(=O)NCCCC[C@H](NC(=O)[C@H](Cc1ccccc1)NC(=O)[C@H](CCCCNC(=O)[C@H](CC(C)C)NC(C)=O)NC(=O)[C@H](CC(C)C)NC(C)=O)C(=O)N1CCC[C@H]1C(=O)NCCCC[C@H](NC(=O)[C@@H]1CCCN1C(=O)[C@H](CCCCNC(=O)[C@H](Cc1ccccc1)NC(=O)[C@H](CCCCNC(=O)[C@H](CC(C)C)NC(C)=O)NC(=O)[C@H](CC(C)C)NC(C)=O)NC(=O)[C@H](Cc1ccccc1)NC(=O)[C@H](CCCCNC(=O)[C@H](CC(C)C)NC(C)=O)NC(=O)[C@H](CC(C)C)NC(C)=O)C(=O)N[C@@H](CCCCN)C(N)=O (I: Ac-LK([Leu-Ac])FK([Phe-X3])PKK-NH2 / II: Ac-LK([Leu-Ac])FK([Phe-X3])P; amide I:6-II:C) |  |  |  |  | > 32 | > 32 | > 32 | > 32 | > 32 | > 32 | > 32 | > 32 | > 32 | > 32
CC(=O)N[C@@H](CC(C)C)C(=O)NCCCC[C@H](NC(=O)[C@H](CC(C)C)NC(C)=O)C(=O)N[C@@H](CC(C)C)C(=O)NCCCC[C@H](NC(=O)[C@H](CC(C)C)NC(=O)[C@H](CCCCNC(=O)[C@H](CC(C)C)NC(C)=O)NC(=O)[C@H](CC(C)C)NC(C)=O)C(=O)N[C@@H](Cc1ccccc1)C(=O)NCCCC[C@H](NC(=O)[C@H](Cc1ccccc1)NC(=O)[C@H](CCCCNC(=O)[C@H](CC(C)C)NC(=O)[C@H](CCCCNC(=O)[C@H](CC(C)C)NC(C)=O)NC(=O)[C@H](CC(C)C)NC(C)=O)NC(=O)[C@H](CC(C)C)NC(=O)[C@H](CCCCNC(=O)[C@H](CC(C)C)NC(C)=O)NC(=O)[C@H](CC(C)C)NC(C)=O)C(=O)N[C@@H](CCCCN)C(N)=O (I: Ac-LK([Leu-Ac])LK([Leu-X3])FKK-NH2 / II: Ac-LK([Leu-Ac])LK([Leu-X3])F; amide I:6-II:C) |  |  |  |  | > 32 | > 32 | > 32 | > 32 | > 32 | > 32 | > 32 | > 32 | > 32 | > 32
CC(C)C[C@H](NC(=O)[C@H](CCCCNC(=O)[C@H](C)N)NC(=O)[C@H](C)N)C(=O)NCCCC[C@H](NC(=O)[C@H](CC(C)C)NC(=O)[C@H](CCCCNC(=O)[C@H](C)N)NC(=O)[C@H](C)N)C(=O)N[C@@H](Cc1ccccc1)C(=O)NCCCC[C@H](NC(=O)[C@H](Cc1ccccc1)NC(=O)[C@H](CCCCNC(=O)[C@H](CC(C)C)NC(=O)[C@H](CCCCNC(=O)[C@H](C)N)NC(=O)[C@H](C)N)NC(=O)[C@H](CC(C)C)NC(=O)[C@H](CCCCNC(=O)[C@H](C)N)NC(=O)[C@H](C)N)C(=O)N[C@@H](CCCCN)C(N)=O (I: H-AK(Ala)LK([Leu-X4])FKK-NH2 / II: H-AK(Ala)LK([Leu-X4])F; amide I:6-II:C) | > 100 | > 100 | 67 (≈ 28.4 µM) | 1000 |  |  |  |  |  |  |  |  |  | 
CC(C)C[C@H](N)C(=O)NCCCC[C@H](NC(=O)[C@@H](N)CC(C)C)C(=O)N[C@@H](C)C(=O)NCCCC[C@H](NC(=O)[C@H](C)NC(=O)[C@H](CCCCNC(=O)[C@@H](N)CC(C)C)NC(=O)[C@@H](N)CC(C)C)C(=O)N[C@@H](Cc1ccccc1)C(=O)NCCCC[C@H](NC(=O)[C@H](Cc1ccccc1)NC(=O)[C@H](CCCCNC(=O)[C@H](C)NC(=O)[C@H](CCCCNC(=O)[C@@H](N)CC(C)C)NC(=O)[C@@H](N)CC(C)C)NC(=O)[C@H](C)NC(=O)[C@H](CCCCNC(=O)[C@@H](N)CC(C)C)NC(=O)[C@@H](N)CC(C)C)C(=O)N[C@@H](CCCCN)C(N)=O (I: H-LK(Leu)AK([Ala-LeuLys(Leu)])FKK-NH2 / II: H-LK(Leu)AK([Ala-LeuLys(Leu)])F; amide I:6-II:C) | 67 (≈ 26.5 µM) | > 100 | > 100 | > 2000 |  |  |  |  |  |  |  |  |  | 
CC(C)C[C@H](NC(=O)[C@H](CCCCNC(=O)[C@@H](N)CC(C)C)NC(=O)[C@@H](N)CC(C)C)C(=O)NCCCC[C@H](NC(=O)[C@H](CC(C)C)NC(=O)[C@H](CCCCNC(=O)[C@@H](N)CC(C)C)NC(=O)[C@@H](N)CC(C)C)C(=O)N[C@@H](C)C(=O)NCCCC[C@H](NC(=O)[C@H](C)NC(=O)[C@H](CCCCNC(=O)[C@H](CC(C)C)NC(=O)[C@H](CCCCNC(=O)[C@@H](N)CC(C)C)NC(=O)[C@@H](N)CC(C)C)NC(=O)[C@H](CC(C)C)NC(=O)[C@H](CCCCNC(=O)[C@@H](N)CC(C)C)NC(=O)[C@@H](N)CC(C)C)C(=O)N[C@@H](CCCCN)C(N)=O (I: H-LK(Leu)LK([Leu-LeuLys(Leu)])AKK-NH2 / II: H-LK(Leu)LK([Leu-LeuLys(Leu)])A; amide I:6-II:C) | 4.5 (≈ 1.77 µM) | > 100 | 67 (≈ 26.4 µM) | > 2000 |  |  |  |  |  |  |  |  |  | 
CC(C)C[C@H](NC(=O)[C@H](CCCCNC(=O)[C@@H](N)CC(C)C)NC(=O)[C@@H](N)CC(C)C)C(=O)NCCCC[C@H](NC(=O)[C@H](CC(C)C)NC(=O)[C@H](CCCCNC(=O)[C@@H](N)CC(C)C)NC(=O)[C@@H](N)CC(C)C)C(=O)N[C@@H](Cc1ccccc1)C(=O)NCCCC[C@H](NC(=O)[C@H](Cc1ccccc1)NC(=O)[C@H](CCCCNC(=O)[C@H](CC(C)C)NC(=O)[C@H](CCCCNC(=O)[C@@H](N)CC(C)C)NC(=O)[C@@H](N)CC(C)C)NC(=O)[C@H](CC(C)C)NC(=O)[C@H](CCCCNC(=O)[C@@H](N)CC(C)C)NC(=O)[C@@H](N)CC(C)C)C(=O)N[C@@H](C)C(N)=O (I: H-LK(Leu)LK([Leu-LeuLys(Leu)])FKA-NH2 / II: H-LK(Leu)LK([Leu-LeuLys(Leu)])F; amide I:6-II:C) | 2 (≈ 0.758 µM) | 15 (≈ 5.69 µM) | ≥ 100 | 31 |  |  |  |  |  |  |  |  |  | 
